Assay results: article PMC9848351, “Discovery of new pyridine-quinoline hybrids as competitive and non-competitive PIM-1 kinase inhibitors with apoptosis induction and caspase 3/7 activation capabilities” (Journal of Enzyme Inhibition and Medicinal Chemistry, 2023)

Assays:
Caco-2 = test: Flow cytometric annexin V/PI analysis of apoptosis, Caco-2; assay type: cell-based; details: IC50 of compound, 72 h, mean ± SEM
Description: (§1) The apoptosis-dependent […] was determined by quantification of annexin-stained apoptotic cells using the FITC signal detector (FL1) against the phycoerythrin emission signal detector (FL2) (Supplementary Page S55). […]
(§2) MTT method was used for assaying cell viability 25. Twenty microliters of 5 mg/ml MTT (Sigma, USA) was added to each well and the plate was incubated at 37 °C for 3 h. Then MTT solution was removed, 100 µl DMSO was used and the absorbance of each well was measured with a microplate reader ( BMG LabTech, […]
(§3) Germany) at 570 nm. […]
(§4) Graphpad Instat software.
(§5) Determination of the anticancer activity
Anticancer effect of the above-mentioned compounds was evaluated using four human […]
cancer cell lines. […]
All cancer cells (5x10^3 cells/well) were seeded in sterile
96-well plates. After 24h, serial concentrations of the tested compounds and Dox were incubated with four cancer cell lines for 72 h at 37 °C in 5% CO2 incubator. MTT method was done as described above. The Graphpad Instat software was used for calculating the half maximal inhibitory concentration (IC50) values. […]
(§6) Flow cytometric analysis of apoptosis
(§7) Caco-2, PC-3 and NFS-60 cell lines. After trypsinization, the untreated and treated cells were incubated with annexin V/PI for 15 min. Then cells were fixed and incubated with streptavidin-fluorescein (5 µg/mL) for 15 min. The apoptosis-dependent anticancer effect was determined by quantification of annexin-stained apoptotic cells using the FITC signal detector (FL1) against the phycoerythrin emission signal detector (FL2). […]

[1] = system: caspase 3/7 in HepG-2 cells; test: Caspase 3/7 activation assay (Apo-ONE kit); assay type: cell-based, human; details: caspase 3/7, relative to untreated HepG2 cells; mean ± SEM
Excerpt: The percentage of caspase 3/7 activation was quantified using the Apo-ONE ® caspase 3/7 kit following the manufacturer’s instructions[27] (Supplementary Page S56).
It’s a fluorescence assay that measures caspase-3 and −7 activities. Caspase 3/7 activators are well known as apoptotic inducers.
Caspase 3/7 activation assay
The Apo-ONE ® caspase 3/7 kit following the manufacturer’s instructions was used for quantifying the percentage of caspase 3/7 activation. The fluorescence substrate present in the kit was cut by caspases to produce fluorescence signal. This signal was measured by the fluorescence omega microplate reader (BMG LabTech, Germany) at 490 nm excitation and 520 nm emission.
Data were expressed as mean ± standard error of the mean (SEM). Statistical significance was estimated by the multiple comparisons Tukey post-hoc analysis of variance (ANOVA) using the SPSS16 program. When p < 0.05, the differences were marked as statistically significant.
PIM-1 and PIM-2 kinase inhibitory activity
PIM-1 and PIM-2 kinase utilizing PIM-1 and PIM-2 Kinase Assay Kit – Promega Corporation catalog #V4032, following the manufacturer’s instructions 26 […]
Information Classification: General

PC-3 = test: Flow cytometric annexin V/PI analysis of apoptosis, PC-3; assay type: cell-based, human; details: IC50 of compound, 72 h, mean ± SEM
Description: as §1
(§8) MTT method was used for assaying cell viability 25. Twenty microliters of 5 mg/ml MTT (Sigma, USA) was added to each well and the plate was incubated at […]
(§9) 37 °C for 3 h. […]
as §4, §5
(§10) Anticancer effect of the above-mentioned compounds was evaluated using four human cancer cell lines. Colon cancer cells (Caco-2) were maintained in DMEM (Lonza, USA) containing 10% FBS while myeloid leukemia cell line (NFS-60), liver cancer cell line (HepG-2) and prostate cancer cell line (PC-3) were cultured in RPMI-1640 (Lonza, USA) supplemented with 10% FBS. All cancer cells (5x10^3 cells/well) were seeded in sterile 96-well plates. After 24h, serial concentrations of the tested compounds and Dox were incubated with four cancer cell lines for 72 h at 37 °C in 5% CO2 incubator. MTT method was done as described above. The Graphpad Instat software was used for calculating the half maximal inhibitory concentration (IC50) values. […]
as §6, §7

HepG-2 = test: Flow cytometric annexin V/PI analysis of apoptosis, HepG-2; assay type: cell-based, human; details: IC50 of compound, 72 h, mean ± SEM
[2] = system: normal human lung fibroblast Wi-38 cell line; test: MTT cytotoxicity on normal cells; assay type: cell-based; details: Homo sapiens; Wi-38, MTT; read-out: IC50 on human lung fibroblasts (Wi-38)
In short: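 Wi-38 fibroblasts in DMEM with 10% FBS were seeded at 5x10^3 cells/well, left 24 h to attach, then exposed to serial compound concentrations for 72 h at 37 °C, 5% CO2. MTT was added for 3 h, formazan dissolved in DMSO and absorbance read at 570 nm. IC50 and EC100 (safe dose) were estimated from the concentration series.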

[3] = system: liver cancer cell line (HepG-2); test: MTT anticancer activity, HepG-2; assay type: cell-based, human; details: Homo sapiens, HepG2; HepG-2, 72 h, MTT; mean ± SEM
In short: (§11)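 Cells seeded at 5x10^3/well (Caco-2 in DMEM, others in RPMI-1640, 10% FBS) and exposed to serial compound concentrations for 72 h at 37 °C, 5% CO2, starting 24 h after seeding. MTT (3 h, 37 °C) read at 570 nm after DMSO solubilisation; IC50 calculated from viability.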

[4] = system: myeloid leukaemia cell line (NFS-60); test: MTT anticancer activity, NFS-60; assay type: cell-based; details: NFS-60, 72 h, MTT; mean ± SEM
In short: as §11

[5] = system: HepG-2, Caco-2, NFS-60, and PC-3 cancer cell lines; assay type: cell-based, human
Description: as §1, §2, §3, §4, §5
Anticancer effect of the above-mentioned compounds was evaluated using four human cancer cell lines. Colon cancer cells (Caco-2) were maintained in DMEM (Lonza, USA) containing 10% FBS while myeloid leukemia cell line (NFS-60), liver cancer cell line (HepG-2) and prostate cancer cell line (PC-3) were cultured in RPMI-1640 (Lonza, USA) supplemented with 10% FBS. All cancer cells (5x10^3 cells/well) were seeded in sterile 96-well plates. […]
Caco-2, PC-3 and NFS-60 cell lines. […] The apoptosis-dependent anticancer effect was determined by quantification of annexin-stained apoptotic cells using the FITC signal detector (FL1) against the phycoerythrin emission signal detector (FL2). […]

NFS-60 = test: Flow cytometric annexin V/PI analysis of apoptosis, NFS-60; assay type: cell-based, human; details: IC50 of compound, 72 h, mean ± SEM
Description: as §1, §8, §9, §4, §5, §10, §6, §7

Compound: COc1cccc2c1C(=O)c1c(O)c3c(c(O)c1C2=O)C[C@@](O)(C(=O)CO)C[C@@H]3O[C@H]1C[C@H](N)[C@H](O)[C@H](C)O1 [Dox, doxorubicin, reference compound]
- total percentage of the apoptotic cell population, Caco-2 (Caco-2): 36.08 ± 0.23%
- Fold increase in caspase activity [1]: 1.61 ± 0.088 fold
- total percentage of the apoptotic cell population, PC-3 (PC-3): 34.59 ± 0.21%
- total percentage of the apoptotic cell population, HepG-2 (HepG-2): 39.265 ± 0.81%
- IC50 [2]: 26.6 nM
- IC50 [3]: 50.4 nM
- IC50 [4]: 33.2 nM
- apoptosis-dependent death / percentage of annexin-stained population cells [5]: less than 39%
- total percentage of the apoptotic cell population, NFS-60 (NFS-60): 37.89 ± 0.28%
